The record followed here is ChEMBL document CHEMBL1201862, “PubChem BioAssay data set” (2004).

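In this assay, cells in 96-well plates receive the compound at five concentrations for 48 hours. Endpoints are linearly interpolated between the surrounding concentrations. GI50 = concentration required for 50% inhibition of growth.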 Activity calls are given as the source filed them. Rule as the data show it: active = GI50 up to about 1.1 µM and inactive = higher. A value given as a limit tells only on which side of the number the result lay.

Holding throughout (assay): inhibition of tumour cell growth, NCI panel, 48 h
Experiment [1] relates to A549.
Experiment [2] relates to EKVX.
Experiment [3] has as its system HCT-15.
The subject of experiment [4] is Hs-578T.
The subject of experiment [5] is K562.
In experiment [6] the test system is KM12.
Experiment [7] concerns LOX IMVI.
In experiment [8] the test system is MCF7.
Experiment [9] has as its system MDA-MB-231.
For experiment [10], the system named is MDA-MB-435.
In experiment [11] the test system is NCI-H226.
The subject of experiment [12] is NCI-H23.
Experiment [13] deals with NCI-H522.
Experiment [14] relates to RXF 393.
Experiment [15] relates to SK-MEL-2.
The subject of experiment [16] is SK-MEL-5.
For experiment [17], the system named is SNB-19.
Experiment [18] concerns SNB-75.
Experiment [19] relates to TK-10.
The test system of experiment [20] is CCRF-CEM.

For `N=C(N)N/N=C/c1nc2sccn2c1[N+](=O)[O-]`, the GI50 was 35.4 µM (inactive) in experiment [1]; 34.2 µM (inactive) in experiment [2]; 47.8 µM in experiment [3]; 24.7 µM (inactive) in experiment [4]; 18.7 µM (inactive) in experiment [5]; 16.6 µM (inactive) in experiment [6]. The GI50 in experiment [7] is 21.4 µM (inactive); in [8], 18 µM (inactive); in experiment [9], 26.2 µM (inactive); in experiment [10], 19.8 µM (inactive); in experiment [11], 81.1 µM (inactive); in [12], 18.1 µM (inactive). Moreover, the GI50 in experiment [13] was 21.6 µM (inactive); in [14], 8.77 µM (inactive); in [15], 19 µM (inactive); in [16], 18.7 µM (inactive); in [17], 35.2 µM (inactive); in [18], 11.3 µM (inactive). Besides, in [19], the GI50 is 85.3 µM (inactive).

Take `O=C1/C(=C\c2cccc(Oc3ccccc3)c2)SC(c2ccccc2)N1c1ccccc1` (centres undefined): the GI50 was > 100 µM (inactive) in [1]; 22 µM (inactive) in [20]; 57 µM (inactive) in [2]; 77.3 µM in experiment [3]; > 100 µM (inactive) in experiment [4]; 23.3 µM (inactive) in experiment [5]. The GI50 in [6] was 46.9 µM (inactive); in experiment [7], 31.9 µM (inactive); in [8] it was 30 µM (inactive); in experiment [9], > 100 µM (inactive); in experiment [10] it was 33.7 µM (inactive); in experiment [11] it was > 100 µM (inactive). The GI50 in experiment [12] was 92.5 µM (inactive); in [13] it was 17.1 µM (inactive); in [14], 69.5 µM (inactive); in [15], > 100 µM (inactive); in experiment [16] it was 27.1 µM (inactive); in [17], 58.1 µM (inactive). The GI50 in experiment [19] is > 100 µM (inactive).

In the case of `O=c1c2c3c(sc2nc2n1N=C(c1ccc(Cl)cc1)CS2)CCCC3`, the GI50 in [1] is > 100 µM (inactive); in experiment [20], > 100 µM (inactive); in [2] it was > 100 µM (inactive); in [3], over 100 µM; in experiment [4] it was > 100 µM (inactive); in experiment [5], > 100 µM (inactive). The GI50 in [6], in experiment [7], in experiment [8], in experiment [9], in experiment [10] and in [11] was > 100 µM (inactive) in each case. In addition, the GI50 in [12], in [13], in [14], in experiment [16], in experiment [18] and in experiment [19] was > 100 µM (inactive) throughout.

On to `Fc1ccc(/N=N/N2CCCC2)cc1`, for which the GI50 in [1] was > 100 µM (inactive); in experiment [20] it was 52.2 µM (inactive); in experiment [2], > 100 µM (inactive); in experiment [3] it was 25.2 µM; in experiment [4], > 100 µM (inactive); in [5] it was 4.66 µM (inactive). Besides, the GI50 is 92.3 µM (inactive) in experiment [6]; 4.94 µM (inactive) in [7]; 77.8 µM (inactive) in [8]; > 100 µM (inactive) in [9]; 37.2 µM (inactive) in [10]; > 100 µM (inactive) in [11]. The GI50 is > 100 µM (inactive) in [12]; > 100 µM (inactive) in experiment [13]; > 100 µM (inactive) in [14]; > 100 µM (inactive) in [15]; 33.9 µM (inactive) in experiment [16]; > 100 µM (inactive) in [17]. For the same compound, in [19], the GI50 was 62.4 µM (inactive).

Take `S=C(N/N=C\C=N/NC(=S)N1CCCCCC1)N1CCCCCC1`: the GI50 in experiment [1] is 6.85 µM (inactive); in experiment [2], > 57.3 µM (inactive); in [3], 8.02 µM; in experiment [4], 32.8 µM (inactive); in [5] it was 9.14 µM (inactive); in experiment [6], 18.7 µM (inactive). In addition, the GI50 in experiment [7] was 13.5 µM (inactive); in experiment [8], 14.3 µM (inactive); in experiment [9] it was > 31.5 µM (inactive); in [10] it was 42.8 µM (inactive); in [11] it was 28.6 µM (inactive); in experiment [12], > 31.1 µM (inactive). Further, the GI50 in [13] was 8.07 µM (inactive); in experiment [14], 20.6 µM (inactive); in [15] it was 17.1 µM (inactive); in experiment [16], 14.2 µM (inactive); in [17] it was 34.2 µM (inactive); in [18] it was 22.5 µM (inactive). Also, the GI50 in experiment [19] is 57.9 µM (inactive).

Take `CCOP1(=O)OCC2OC(n3cnc4c(N)ncnc43)C(O)C2O1.c1ccccc1` (centres undefined): the GI50 in experiment [1] is > 100 µM (inactive); in [2] it was > 100 µM (inactive); in [3], over 100 µM; in [4], > 100 µM (inactive); in experiment [5], > 100 µM (inactive); in experiment [6], > 100 µM (inactive). The GI50 in experiment [7], in experiment [8], in [9], in experiment [10], in experiment [11] and in experiment [13] was > 100 µM (inactive) throughout. For the same compound, the GI50 in experiment [14], in [15], in experiment [16], in experiment [17], in experiment [18] and in [19] was > 100 µM (inactive) in each case.

Regarding `COc1cccc2[nH]c(-c3ccccn3)nc12`, the GI50 in experiment [1] was > 100 µM (inactive); in experiment [2], > 100 µM (inactive); in experiment [3], 55.7 µM; in experiment [4] it was 68.9 µM (inactive); in experiment [5], > 100 µM (inactive); in experiment [6], > 100 µM (inactive). Further, the GI50 in [7], in experiment [8], in experiment [9], in experiment [10], in experiment [11] and in experiment [12] was > 100 µM (inactive) each time. Also, the GI50 was 48.9 µM (inactive) in experiment [13]; > 100 µM (inactive) in experiment [14]; > 100 µM (inactive) in [15]; > 100 µM (inactive) in experiment [16]; > 100 µM (inactive) in experiment [17]; > 100 µM (inactive) in [18]. In experiment [19], the GI50 was > 100 µM (inactive).

As for `CC(C)OC(=O)C1=C2c3ncccc3C(=O)N2[C@@H](Cl)[C@@H](Cl)[C@@H]1Cl`, the GI50 in experiment [1] was > 100 µM (inactive); in experiment [2], > 100 µM (inactive); in experiment [3], over 100 µM; in experiment [4], 81.5 µM (inactive); in experiment [5], 33.4 µM (inactive); in experiment [6], > 100 µM (inactive). Moreover, the GI50 in [7] was > 100 µM (inactive); in experiment [8], 84.3 µM (inactive); in experiment [9], > 100 µM (inactive); in experiment [10], > 100 µM (inactive); in [11], > 100 µM (inactive); in experiment [12], > 100 µM (inactive). Also, the GI50 in experiment [13] is 35.6 µM (inactive); in experiment [14], > 100 µM (inactive); in experiment [15], > 100 µM (inactive); in [16] it was > 100 µM (inactive); in experiment [17], > 100 µM (inactive); in experiment [19] it was > 100 µM (inactive).

In the case of `Cc1cc(C)c2nc3c(c(C(O)C4CCCCN4)c2c1)CC/C3=C\c1ccc(Cl)cc1` (centres undefined), the GI50 is 76 µM (inactive) in experiment [1]; 25.4 µM (inactive) in [20]; 43.2 µM (inactive) in experiment [2]; 58.7 µM in experiment [3]; > 100 µM (inactive) in experiment [4]; 38 µM (inactive) in [5]. Also, the GI50 in experiment [6] is 64.3 µM (inactive); in experiment [8] it was 46.6 µM (inactive); in [9] it was 73.3 µM (inactive); in [10] it was 55.1 µM (inactive); in [11] it was > 100 µM (inactive); in [12], 85.9 µM (inactive). Moreover, the GI50 was 34 µM (inactive) in experiment [13]; 27.7 µM (inactive) in experiment [14]; 64.9 µM (inactive) in [15]; 28.9 µM (inactive) in experiment [16]; > 100 µM (inactive) in [17]; 54 µM (inactive) in [18]. Besides, the GI50 in experiment [19] is > 100 µM (inactive).

Turning to `C=CC(C)(O)/C=C/C=C(\C)C(CC1OC1(C)C)OC(=O)/C(C)=C\C` (centres undefined), the GI50 in experiment [1] was > 100 µM (inactive); in experiment [2] it was > 100 µM (inactive); in experiment [3] it was over 100 µM; in experiment [4] it was > 100 µM (inactive); in experiment [5], > 100 µM (inactive); in experiment [6], > 100 µM (inactive). In addition, the GI50 in experiment [7], in experiment [8], in experiment [9], in experiment [10], in experiment [12] and in experiment [13] was > 100 µM (inactive) each time. The GI50 in experiment [14], in experiment [15], in experiment [16], in experiment [17], in experiment [18] and in [19] was > 100 µM (inactive) in each case.

As for `O=c1c(Cl)c(Cl)c(=O)c2sc3cc(Cl)ccc3[nH]c1=2`, the GI50 in experiment [1] was > 100 µM (inactive); in experiment [2], 14 µM (inactive); in experiment [3], 42.3 µM; in experiment [4], 39 µM (inactive); in [5], 15.5 µM (inactive); in experiment [6], > 100 µM (inactive). Besides, the GI50 in experiment [8] was 73.3 µM (inactive); in experiment [9], 2.04 µM (inactive); in experiment [10], 34 µM (inactive); in experiment [11], 27.3 µM (inactive); in experiment [12], 23.3 µM (inactive); in experiment [13] it was 16.1 µM (inactive). The GI50 is 66.4 µM (inactive) in [14]; > 100 µM (inactive) in experiment [15]; 25.1 µM (inactive) in experiment [16]; 78.9 µM (inactive) in experiment [17]; 47.4 µM (inactive) in experiment [18]; 65.6 µM (inactive) in experiment [19].
